Measured values reported in US10017481B2, “Conformationally constrained, fully synthetic macrocyclic compounds” (POLYPHOR AG, priority 2012, dated 2018).
Converted amounts (≈) assume the structure as drawn. Read-outs that look alike come from different tables or passages of the source.

Legend:
[1] = molecular target: T1, Human recombinant cathepsin S (Homo sapiens, UniProt P25774); assay: Cathepsin S (CatS) enzyme assay; type: biochemical
T1 construct: host or cells: murine myeloma NS0 cells
Description: 2. Enzyme Assays for the Peptidase Endothelin Converting Enzyme-1 (ECE-1) and for the Cysteine Protease Cathepsin S (CatS)
The assays were performed according to provider's (Ricerca Biosciences, LLC) protocols which in turn are based on literature procedures (for ECE-1 cf.: O. Valdenaire et al., Eur. J. Biochem. 1999, 264, 341-349; F. D. Russell, A. P. Davenport, Circ. Res. 1999, 84, 891-896; and for CatS: G P Shi et al., J. Biol. Chem. 1992, 267, 7258-62; D Brömme et al., J. Biol. Chem. 1993 268, 4832-4838.).
Human recombinant cathepsin S expressed in a murine myeloma NS0 cells is used. Test compound and/or vehicle is preincubated with 0.1 μg/ml enzyme in modified acetate buffer pH 4.5 for 15 minutes at 25° C. The reaction is initiated by addition of […] Z-Leu-Arg-AMC for another 30 minutes' incubation period. Determination of the amount of AMC formed is read spectrofluorimetrically at 360 nm/465 nm. […]
IC50 values were determined by a non-linear, least squares regression analysis using MathIQ™ (ID Business Solutions Ltd., UK). Inhibition constants K were calculated according to the equation of Cheng and Prusoff (Y. Cheng, W. H. Prusoff, Biochem. Pharmacol. 1973, 22, 3099-3108) using the observed IC50 of the tested compound, the concentration of radioligand employed in the assay, and the historical values for the KD of the ligand. The Hill coefficient (nH), defining the slope of the competitive binding curve, was calculated using MathIQ™.

[2] = molecular target: T2, Oxytocin receptor (OT receptor) (Homo sapiens, UniProt P30559); assay: Ca2+ flux (FLIPR) assay, OT receptor, agonist/antagonist mode; type: cell-based; details: antagonist mode
T2 construct: expressed in transfected cells; host or cells: Ca2+ optimized hematopoietic cell lines (rat)
T2 sequence (P30559 1-389): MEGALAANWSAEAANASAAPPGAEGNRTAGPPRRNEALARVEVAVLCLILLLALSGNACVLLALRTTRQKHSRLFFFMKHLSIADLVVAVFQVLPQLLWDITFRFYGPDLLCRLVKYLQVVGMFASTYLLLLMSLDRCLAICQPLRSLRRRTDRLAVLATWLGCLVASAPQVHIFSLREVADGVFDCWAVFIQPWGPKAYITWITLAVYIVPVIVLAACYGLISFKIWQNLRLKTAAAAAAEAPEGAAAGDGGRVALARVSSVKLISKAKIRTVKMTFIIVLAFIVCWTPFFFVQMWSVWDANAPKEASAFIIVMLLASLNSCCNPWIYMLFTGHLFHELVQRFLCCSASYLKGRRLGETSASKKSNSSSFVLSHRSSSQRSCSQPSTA
Description: Biological and Pharmacological Methods 1. Ca^2+ Flux Assays for the GPCRs Oxytocin Receptor (OT Receptor), Thyrotropin-Releasing Hormone Receptor (TRH Receptor) and Bombesin Receptor Subtype 3 (BB3 Receptor)
Assays were performed on a FLIPR^TETRA fluorometric imaging plate reader (Molecular Devices) with ScreenWorks Version 2 (Molecular Devices) as device operating and data analysis software.
Dose dependent agonist and antagonist activities were determined. Percentage activation and percentage inhibition values were determined.
Percentage activation was determined upon initial addition of the sample compounds followed by 10 minutes' incubation at 25° C. Following compound incubation, reference agonists were added at EC80 to determine percentage inhibition.
Reference agonists were purchased from reputable commercial vendors and prepared according to each ligand's specifications. All handling of ligands were done to ensure proper control throughout the experiments.
Example compounds were weighed on a Microbalance (Mettler MX5) and dissolved in 100% DMSO to a final concentration of 2.5 mM and subsequently diluted into the assay buffer.
The assay buffer was a supplemented HBSS (Hank's Balanced Salt Solution). HBSS was supplemented with 20 mM HEPES (4-(2-hydroxyethyl)-piperazin-1-ethansulfonic acid) and 2.5 mM Probenecid (Sigma P8761).
GPCR assays were performed using Ca^2+ optimized hematopoietic cell lines (rat) with cultures never exceeding 90% confluency. Cells were harvested and seeded (from cultures at less than 90% confluency) at 50000 cells/well for a 96-well plate (12500 cells/well for 384). After seeding, the assay plates were incubated for 45 minutes at room temperature. After room temperature incubation, the assay plates were incubated at 37° C. 5% CO2 for 24 hours prior to assaying.
All GPCR assays were performed using Fluo-8 Ca^2+ dye.
Ca^2+ dye was prepared at 1× dye concentration in GPCR assay buffer. After 24 hours of incubation, cells were washed with GPCR assay buffer, and then Ca^2+-dye (100 μL/well) was added.
The plates were incubated for 90 minutes at 30° C. 5% CO2 prior to FLIPR assay.
Compound plates were prepared to add 50 μL/well during the agonist assay mode. During the FLIPR assay, 50 μL/well from the compound plate was diluted 3-fold into the existing 100 μL/well from the dye loading step. Therefore all compounds were prepared as 3× the final concentration desired in the assay.
After completion of the first single addition assay run, assay plate was removed from the FLIPR Tetra and placed at 25° C. for 7 minutes before antagonist assay.
Using the EC80 values determined during the agonist assay, all pre-incubated sample compound and reference antagonist (if applicable) wells were stimulated at the EC80 of the reference agonist. As reference ligands for these assays their obvious natural ligands oxytocin (OT), thyrotropin-releasing hormone (TRH) and bombesin (6-14) [BN(6-14)] were used.
After the addition of the reference agonist fluorescence was monitored for 180 sec using FLIPR Tetra.
From the FLIPR data, with negative control correction enabled, the maximum statistic for each well was exported and percentage activation relative to Emax control was calculated.

[3] = system: S. aureus ATCC 29213, ATCC 25923, DSM 11729, DSM 46320, S. aureus 39; assay: Antimicrobial assay, broth microdilution MIC, S. aureus strains; type: cell-based; details: Staphylococcus aureus
Description: (§1) The antimicrobial activities of the compounds were determined in 96-well plates (Greiner, polystyrene) by the standard NCCLS broth microdilution method (National Committee for Clinical Laboratory Standards 1993. Methods for dilution antimicrobial susceptibility tests for bacteria that grow aerobically, 3rd ed. Approved standard M7-A6. National Committee for Clinical laboratory standards, Wayne, Pa.) with slight modifications. Inocula of the microorganisms were diluted into Mueller-Hinton II (MH, cation adjusted) broth+0.002% P-80 and compared with a 0.5 McFarland standard to give appr. 10^6 colony forming units (CFU)/mL. Aliquots (50 μl) of inoculate were added to 50 μl of MH broth+0.002% P-80 containing the compounds in serial two-fold dilutions. The following microorganisms were used to determine antibiotic selectivity of the compounds: S. pneumoniae DSM 20566 11A11, 3313A6, 704CG4B21, 82BERG72; S. aureus ATCC 29213, ATCC 25923, DSM 11729, DSM 46320, S. aureus 39. Antimicrobial activities of the compounds were expressed as the minimal inhibitory concentration (MIC) in μg/mL at which no visible growth was observed after 18-20 hours of incubation at 36° C.

[4] = system: S. pneumoniae DSM 20566 11A11, 3313A6, 704CG4B21, 82BERG72; assay: Antimicrobial assay, broth microdilution MIC, S. pneumoniae strains; type: cell-based; details: Streptococcus pneumoniae, DSM20566; strain DSM 20566 (Table 32.7); read-out: MIC S. pneumoniae DSM 20566
Description: as §1

T1 sequence (P25774 115-331): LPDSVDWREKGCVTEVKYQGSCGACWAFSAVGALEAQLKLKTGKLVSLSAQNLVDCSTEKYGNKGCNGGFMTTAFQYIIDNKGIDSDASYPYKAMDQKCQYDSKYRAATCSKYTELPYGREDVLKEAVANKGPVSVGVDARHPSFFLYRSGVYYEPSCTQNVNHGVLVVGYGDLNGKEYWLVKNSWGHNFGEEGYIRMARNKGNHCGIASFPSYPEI

SMILES	inhibition at 10 µM ([1]; 10 μM compound)	IC50 [2]	inhibition at 10 µM ([2]; 10 μM)	also measured
CN(C)CC(=O)N[C@H]1CCCN(C)C(=O)c2cccc(c2)-c2ccccc2OC[C@@H]2C[C@H](NC(=O)Cc3ccc4ccccc4c3)CN2C1=O [Ex. 20, 2-(dimethylamino)-N-[(10S,12S,16S)-20-methyl-12-{[2-(2-naphthyl)acetyl]amino}-15,21-dioxo-8-oxa-14,20-diazatetracyclo[20.3.1.0^2,7.0^10,14]hexacosa-1(26),2,4,6,22,24-hexaen-16-yl]acetamide]	45%			IC50 [1]: 14.7 µM
CN1CCC[C@H](NS(=O)(=O)C2CC2)C(=O)N2C[C@@H](NC(=O)Cc3ccc4ccccc4c3)C[C@H]2COc2ccccc2-c2cccc(c2)C1=O [Ex. 21, N-[(10S,12S,16S)-16-[(cyclopropylsulfonyl)amino]-20-methyl-15,21-dioxo-8-oxa-14,20-diazatetracyclo[20.3.1.0^2,7.0^10,14]hexacosa-1(26),2,4,6,22,24-hexaen-12-yl]-2-(2-naphthyl)acetamide]	75%			
CC(C)CC(=O)N[C@H]1CCCN(C)C(=O)c2cccc(c2)-c2ccccc2OC[C@@H]2C[C@H](NC(=O)Cc3ccc4ccccc4c3)CN2C1=O [Ex. 24, 3-methyl-N-[(10S,12S,16S)-20-methyl-12-{[2-(2-naphthyl)acetyl]amino}-15,21-dioxo-8-14,20-diazatetracyclo[20.3.1.0^2,7.0^10,14]hexacosa-1(26),2,4,6,22,24-hexaen-16-yl]butanamide]				% Inhibition at 10 μM ([1]; 10 μM compound): 55%
CCCC(=O)N[C@H]1CCCN(C)C(=O)c2cccc(c2)-c2ccccc2OC[C@@H]2C[C@H](NC(=O)Cc3ccc4ccccc4c3)CN2C1=O [Ex. 27, N-[(10S,12S,16S)-20-methyl-12-{[2-(2-naphthyl)acetyl]amino)-15,21-dioxo-8-oxa-14,20-diazatetracyclo[20.3.1.0^2,7.0^10,14]hexacosa-1(26),2,4,6,22,24-hexaen-16-yl]butanamide]	50%			
CCCCC(=O)N[C@H]1CCCN(C)C(=O)c2cccc(c2)-c2ccccc2OC[C@@H]2C[C@H](NC(=O)Cc3ccc4ccccc4c3)CN2C1=O [Ex. 28, N-[(10S,12S,16S)-20-methyl-12-{[2-(2-naphthyl)acetyl]amino}-15,21-dioxo-8-oxa-14,20-diazatetracyclo[20.3.1.0^2,7.0^10,14]hexacosa-1(26),2,4,6,22,24-hexaen-16-yl]pentanamide]	57%			
CN1CCNC(=O)c2cncc(c2)-c2cccc(c2)OC[C@@H]2C[C@@H](NC(=O)OC(C)(C)C)CN2C(=O)C1 [Ex. 94, tert-butyl N-[(9S,11R)-16-methyl-14,20-dioxo-7-oxa-13,16,19,23-tetraazatetracyclo[19.3.1.1^2,6.0^9,13]hexacosa-1(25),2(26),3,5,21,23-hexaen-11-yl]carbamate]		3 µM	58%	MIC ([3]; strain ATCC 25923, read-out: MIC S. aureus ATCC 25923): 8 mg/L (≈ 15.7 µM); MIC ([3]; strain ATCC 29213, read-out: MIC S. aureus ATCC 29213): 4 mg/L (≈ 7.85 µM); MIC ([3]; strain DSM 11729, read-out: MIC S. aureus DSM 11729): 4 mg/L (≈ 7.85 µM); MIC ([3]; strain DSM 46320, read-out: MIC S. aureus DSM 46320): 8 mg/L (≈ 15.7 µM); MIC ([3]; strain S. aureus 39, read-out: MIC S. aureus 39): 8 mg/L (≈ 15.7 µM); MIC [4]: > 16 mg/L

More lines, main results first:

inhibition at 10 µM ([1]; 10 μM compound)	IC50 [2]	inhibition at 10 µM ([2]; 10 μM)	SMILES	also measured
	1.2 µM	60%	CN1CCNC(=O)c2cncc(c2)-c2cccc(c2)OC[C@@H]2C[C@@H](NC(=O)Cc3ccc4ccccc4c3)CN2C(=O)C1 [Ex. 96, N-[(9S,11R)-16-methyl-14,20-dioxo-7-oxa-13,16,19,23-tetraazatetracyclo[19.3.1.1^2,6.0^9,13]hexacosa-1(25),2(26),3,5,21,23-hexaen-11-yl]-2-(2-naphthyl) acetamide]	
	4.6 µM	57%	CC(=O)N[C@@H]1C[C@H]2COc3cccc(c3)-c3cncc(c3)C(=O)NCCN(Cc3cccc(F)c3)CC(=O)N2C1 [Ex. 100, N-[(9S,11R)-16-(3-fluorobenzyl)-14,20-dioxo-7-oxa-13,16,19,23-tetraazatetracyclo[19.3.1.1^2,6.0^9,13]hexacosa-1(25),2(26),3,5,21,23-hexaen-11-yl]acetamide]	
	2.6 µM		CN1CCNC(=O)c2cncc(c2)-c2cccc(c2)OC[C@@H]2C[C@@H](NC(=O)Cc3cccc4ccccc34)CN2C(=O)C1 [Ex. 101, N-[(9S,11R)-16-methyl-14,20-dioxo-7-oxa-13,16,19,23-tetraazatetracyclo[19.3.1.1^2,6.0^9,13]hexacosa-1(25),2(26),3,5,21,23-hexaen-11-yl]-2-(1-naphthyl) acetamide]	Antagonist activity % Inhibition at 10 μM ([2]; 10 μM): 69%
	6.9 µM	77%	CN1CCNC(=O)c2cncc(c2)-c2cccc(c2)OC[C@@H]2C[C@@H](NS(=O)(=O)c3ccccc3)CN2C(=O)C1 [Ex. 103, N-[(9S,11R)-16-methyl-14,20-dioxo-7-oxa-13,16,19,23-tetraazatetracyclo[19.3.1.1^2,6.0^9,13]hexacosa-1(25),2(26),3,5,21,23-hexaen-11-yl]benzenesulfonamide]	
